{
  "source": "patent US20090247548A1",
  "about": "“PYRROLOPYRIMIDINE DERIVATIVES FOR TREATING PROLIFERATIVE DISEASES” (priority 2004, published 2009)",
  "data": [
    {"smiles": "C[C@@H](Nc1ncnc2[nH]c(-c3ccc(CN4CCNCC4)cc3)cc12)c1ccccc1", "note": "[Example 1, ((R)-1-Phenyl-ethyl)-[6-(4-piperazin-1-ylmethyl-phenyl)-7H-pyrrolo[2,3-d]pyrimidin-4-yl]-amine]", "values": [
      {"measurement": "melting point", "result": "240 to 242", "unit": "°C"}
    ]}
  ]
}
